pIC50: −log10 of the molar value. Several values for one entry are separate records, joined by “and”; a condition that tells them apart may be missing. Equal entries are not always repeated.
Tested on: 521955-158-R2-J5-PDC complex spheroid growth
Assay: Anticancer human tumor 521955-158-R2-J5-PDC patient-derived pancreatic carcinoma cell line growth inhibition [AhR]
Settings: for viability, T/C: stronger effect = lower value
Summary of the method: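 Spheroids combined tumor cells with HUVEC endothelial cells and human MSCs as stroma. AhR antagonists were paired with standard or investigational drugs, each dosed in half-log steps down from near clinical Cmax, or from 10 microM where Cmax was unknown.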

[1] = curve of first compound, second compound 0.1 µM
[2] = curve of first compound, second compound 0.316 µM
[3] = curve of first compound, second compound 1 µM
[4] = curve of first compound, second compound 3.16 µM
[5] = curve of first compound, second compound 10 µM
[6] = second compound 0.1 µM, first compound 0.0316 µM
[7] = second compound 0.1 µM, first compound 0.1 µM
[8] = second compound 0.316 µM, first compound 0.0316 µM
[9] = second compound 0.316 µM, first compound 0.1 µM
[10] = second compound 1 µM, first compound 0.0316 µM
[11] = second compound 1 µM, first compound 0.1 µM
[12] = second compound 3.16 µM, first compound 0.0316 µM
[13] = second compound 3.16 µM, first compound 0.1 µM
[14] = second compound 10 µM, first compound 0.0316 µM
[15] = second compound 10 µM, first compound 0.1 µM
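Throughout, for viability, T/C: spheroids mix tumor cells with HUVEC endothelium and human MSC stroma; luminescence taken as viability surrogate after a week of drug exposure.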

Q: What does the source list for `CC[C@@]1(O)C(=O)OCc2c1cc1n(c2=O)Cc2cc3c(CN(C)C)c(O)ccc3nc2-1` + Cc1ccccc1N=Nc1ccc(NC(=O)c2ccnn2C)c(C)c1?
A: pIC50 [1]: 7.57; pIC50 [2]: 7.76; pIC50 [3]: 7.57; pIC50 [4]: 7.65; pIC50 [5]: 7.36; viability, T/C (second compound 0.1 µM, first compound 0.000316 µM): 76.7%; viability, T/C (second compound 0.1 µM, first compound 0.001 µM): 79.3%; viability, T/C (second compound 0.1 µM, first compound 0.00316 µM): 89.5%; viability, T/C (second compound 0.1 µM, first compound 0.01 µM): 78.6%; viability, T/C [6]: 45.7%; viability, T/C [7]: 23%; viability, T/C (second compound 0.316 µM, first compound 0.000316 µM): 92.1%; viability, T/C (second compound 0.316 µM, first compound 0.001 µM): 100%; viability, T/C (second compound 0.316 µM, first compound 0.00316 µM): 88.8%; viability, T/C (second compound 0.316 µM, first compound 0.01 µM): 64.7%; viability, T/C [8]: 34.7%; viability, T/C [9]: 25.2%; viability, T/C (second compound 1 µM, first compound 0.000316 µM): 98.2%; viability, T/C (second compound 1 µM, first compound 0.001 µM): 113%; viability, T/C (second compound 1 µM, first compound 0.00316 µM): 114%; viability, T/C (second compound 1 µM, first compound 0.01 µM): 87.8%; viability, T/C [10]: 44.6%; viability, T/C [11]: 22.9%; viability, T/C (second compound 3.16 µM, first compound 0.000316 µM): 119%; viability, T/C (second compound 3.16 µM, first compound 0.001 µM): 131%; viability, T/C (second compound 3.16 µM, first compound 0.00316 µM): 122%; viability, T/C (second compound 3.16 µM, first compound 0.01 µM): 77.3%; viability, T/C [12]: 41.1%; viability, T/C [13]: 25.6%; viability, T/C (second compound 10 µM, first compound 0.000316 µM): 130%; viability, T/C (second compound 10 µM, first compound 0.001 µM): 122%; viability, T/C (second compound 10 µM, first compound 0.00316 µM): 131%; viability, T/C (second compound 10 µM, first compound 0.01 µM): 107%; viability, T/C [14]: 59.9%; viability, T/C [15]: 26.3%

Q: Which results are given for `CC(C)CC(NC(=O)C(Cc1ccccc1)NC(=O)c1cnccn1)B(O)O` (configuration not stated) + CC(CO)NC(=O)c1cc(-c2ccc(Cl)cc2)nn(-c2cnn(C)c2)c1=O?
A: pIC50 [1]: 8.36; pIC50 [2]: 8.27; pIC50 [3]: 8.36; pIC50 [4]: 8.31; pIC50 [5]: 8.38; viability, T/C (second compound 0.1 µM, first compound 0.000949 µM): 78.8%; viability, T/C (second compound 0.1 µM, first compound 0.003 µM): 71.6%; viability, T/C (second compound 0.1 µM, first compound 0.00949 µM): 5.92%; viability, T/C (second compound 0.1 µM, first compound 0.03 µM): 2.45%; viability, T/C (second compound 0.1 µM, first compound 0.0949 µM): 2%; viability, T/C (second compound 0.1 µM, first compound 0.3 µM): 0.19%; viability, T/C (second compound 0.316 µM, first compound 0.000949 µM): 103%; viability, T/C (second compound 0.316 µM, first compound 0.003 µM): 94.7%; viability, T/C (second compound 0.316 µM, first compound 0.00949 µM): 6.1%; viability, T/C (second compound 0.316 µM, first compound 0.03 µM): 1.23%; viability, T/C (second compound 0.316 µM, first compound 0.0949 µM): 0.12%; viability, T/C (second compound 0.316 µM, first compound 0.3 µM): 1.89%; viability, T/C (second compound 1 µM, first compound 0.000949 µM): 113%; viability, T/C (second compound 1 µM, first compound 0.003 µM): 70.6%; viability, T/C (second compound 1 µM, first compound 0.00949 µM): 6.39%; viability, T/C (second compound 1 µM, first compound 0.03 µM): 2.84%; viability, T/C (second compound 1 µM, first compound 0.0949 µM): 0.51%; viability, T/C (second compound 1 µM, first compound 0.3 µM): 0.29%; viability, T/C (second compound 3.16 µM, first compound 0.000949 µM): 83.5%; viability, T/C (second compound 3.16 µM, first compound 0.003 µM): 81.6%; viability, T/C (second compound 3.16 µM, first compound 0.00949 µM): 6.11%; viability, T/C (second compound 3.16 µM, first compound 0.03 µM): 0.25%; viability, T/C (second compound 3.16 µM, first compound 0.0949 µM): 1.98%; viability, T/C (second compound 3.16 µM, first compound 0.3 µM): 1.99%; viability, T/C (second compound 10 µM, first compound 0.000949 µM): 68.2%; viability, T/C (second compound 10 µM, first compound 0.003 µM): 68.3%; viability, T/C (second compound 10 µM, first compound 0.00949 µM): 3.86%; viability, T/C (second compound 10 µM, first compound 0.03 µM): 0.37%; viability, T/C (second compound 10 µM, first compound 0.0949 µM): 0.52%; viability, T/C (second compound 10 µM, first compound 0.3 µM): 1.58%

Q: `CC1(C)CCC(CN2CCN(c3ccc(C(=O)NS(=O)(=O)c4ccc(NCC5CCOCC5)c([N+](=O)[O-])c4)c(Oc4cnc5[nH]ccc5c4)c3)CC2)=C(c2ccc(Cl)cc2)C1` was tested. Which viability, T/C (compound 0.0316 µM) did it give?
A: 96.5% and 101% and 99%

Q: And the viability, T/C (compound 0.1 µM)?
A: 71.9% and 97.7% and 79.6%

Q: What about the viability, T/C (compound 0.316 µM) of the same compound?
A: 105% and 111% and 106%

Q: What about the viability, T/C (compound 1 µM) of the same compound?
A: 90.7% and 91% and 77.8%

Q: What about the viability, T/C (compound 3.16 µM) of the same compound?
A: 96% and 87.3% and 90.5%

Q: What about the viability, T/C (compound 10 µM) of the same compound?
A: 73.7% and 91.8% and 83.6%

Q: What about the pIC50 (curve of compound) of the same compound?
A: < 5.00

Q: `CC1COCCN1c1cc(C2(S(C)(=N)=O)CC2)nc(-c2ccnc3[nH]ccc23)n1` (configuration not stated) + CC(CO)NC(=O)c1cc(-c2ccc(Cl)cc2)nn(-c2cnn(C)c2)c1=O was tested. Which pIC50 [1] did it give?
A: 5.61

Q: And the pIC50 [2]?
A: 5.65

Q: What about the pIC50 [3] of the same compound?
A: 5.64

Q: What about the pIC50 [4] of the same compound?
A: 5.65

Q: What about the pIC50 [5] of the same compound?
A: 5.74

Q: What about the viability, T/C [6] of the same compound?
A: 114%

Q: And the viability, T/C [7]?
A: 147%

Q: What about the viability, T/C (second compound 0.1 µM, first compound 0.316 µM) of the same compound?
A: 125%

Q: And the viability, T/C (second compound 0.1 µM, first compound 1 µM)?
A: 111%

Q: And the viability, T/C (second compound 0.1 µM, first compound 3.16 µM)?
A: 32.3%

Q: What about the viability, T/C (second compound 0.1 µM, first compound 10 µM) of the same compound?
A: 17.2%

Q: What about the viability, T/C [8] of the same compound?
A: 110%

Q: And the viability, T/C [9]?
A: 106%

Q: What about the viability, T/C (second compound 0.316 µM, first compound 0.316 µM) of the same compound?
A: 130%

Q: What about the viability, T/C (second compound 0.316 µM, first compound 1 µM) of the same compound?
A: 113%

Q: What about the viability, T/C (second compound 0.316 µM, first compound 3.16 µM) of the same compound?
A: 21.8%

Q: What about the viability, T/C (second compound 0.316 µM, first compound 10 µM) of the same compound?
A: 14.1%

Q: And the viability, T/C [10]?
A: 113%

Q: What about the viability, T/C [11] of the same compound?
A: 108%

Q: What about the viability, T/C (second compound 1 µM, first compound 0.316 µM) of the same compound?
A: 103%

Q: What about the viability, T/C (second compound 1 µM, first compound 1 µM) of the same compound?
A: 125%

Q: What about the viability, T/C (second compound 1 µM, first compound 3.16 µM) of the same compound?
A: 24.8%

Q: And the viability, T/C (second compound 1 µM, first compound 10 µM)?
A: 12.7%

Q: And the viability, T/C [12]?
A: 114%

Q: What about the viability, T/C [13] of the same compound?
A: 117%

Q: What about the viability, T/C (second compound 3.16 µM, first compound 0.316 µM) of the same compound?
A: 146%

Q: What about the viability, T/C (second compound 3.16 µM, first compound 1 µM) of the same compound?
A: 105%

Q: And the viability, T/C (second compound 3.16 µM, first compound 3.16 µM)?
A: 20.6%

Q: What about the viability, T/C (second compound 3.16 µM, first compound 10 µM) of the same compound?
A: 12.3%

Q: And the viability, T/C [14]?
A: 89.2%

Q: What about the viability, T/C [15] of the same compound?
A: 123%

Q: What about the viability, T/C (second compound 10 µM, first compound 0.316 µM) of the same compound?
A: 110%

Q: And the viability, T/C (second compound 10 µM, first compound 1 µM)?
A: 85%

Q: What about the viability, T/C (second compound 10 µM, first compound 3.16 µM) of the same compound?
A: 17.3%

Q: What about the viability, T/C (second compound 10 µM, first compound 10 µM) of the same compound?
A: 11.8%
